The values below are quoted from earlier work in patent US20100150991A1, “Combination Wound Therapy” (priority 2008, published 2010).

For one data set, the system named is acute and chronic wounds. Conditions: topical CO2, acute and chronic wounds; Wollina et al 2004.
The conditions of data set [1]: CO2 insufflation compared with air insufflation; van der Linden and Persson 2003.
The conditions of data set [2]: topical application of gaseous nitric oxide.
Data set [3] deals with neutrophil adhesion, platelets, and pro-inflammatory cutokines in the circulating blood. The note with it: doses of less than 80 ppm; by reducing neutrophil adhesion, platelets and pro-inflammatory cytokines in circulating blood.

Turning to `O=C=O` [CO2, carbon dioxide], the “clinical evidence in wounds” value with acute and chronic wounds is “increased granulation tissue and reduction of discharge and malodor”. Also, the rates of infection entry in data set [1] is recorded as “lower rates of infection than air insufflation”.
In the case of `[N]=O` [NO, nitric oxide], the “half life of NO in contact with tissues” value in data set [2] was 6 min. Besides, in data set [3], the anti-inflammatory effect result was “anti-inflammatory effect”.
